The values below come from ChEMBL document CHEMBL1154346 (Bioorg Med Chem Lett, 2009).

In series [1] the target is Voltage-gated inwardly rectifying potassium channel KCNH2 (Homo sapiens, UniProt Q12809). Description: Displacement of [3H]dofetilide from human ERG expressed in HEK293 cells. Format: cell-based. (Loss of bound radioactivity is the signal in a displacement assay; it reports binding, not function.)
The test system of another series is Canis familiaris. Description: Cardiotoxicity in conscious dog assessed as prolongation of QT interval. Format: toxicity, organism-based, Canis lupus familiaris. Conditions: in vivo.
A short description of series [2]: Toxicity in iv dosed mouse assessed as loss of righting reflex. Format: organism-based. Particulars: in vivo, read-out: HD50 (the source's name).

Chain of Voltage-gated inwardly rectifying potassium channel KCNH2 (Q12809 whole entry): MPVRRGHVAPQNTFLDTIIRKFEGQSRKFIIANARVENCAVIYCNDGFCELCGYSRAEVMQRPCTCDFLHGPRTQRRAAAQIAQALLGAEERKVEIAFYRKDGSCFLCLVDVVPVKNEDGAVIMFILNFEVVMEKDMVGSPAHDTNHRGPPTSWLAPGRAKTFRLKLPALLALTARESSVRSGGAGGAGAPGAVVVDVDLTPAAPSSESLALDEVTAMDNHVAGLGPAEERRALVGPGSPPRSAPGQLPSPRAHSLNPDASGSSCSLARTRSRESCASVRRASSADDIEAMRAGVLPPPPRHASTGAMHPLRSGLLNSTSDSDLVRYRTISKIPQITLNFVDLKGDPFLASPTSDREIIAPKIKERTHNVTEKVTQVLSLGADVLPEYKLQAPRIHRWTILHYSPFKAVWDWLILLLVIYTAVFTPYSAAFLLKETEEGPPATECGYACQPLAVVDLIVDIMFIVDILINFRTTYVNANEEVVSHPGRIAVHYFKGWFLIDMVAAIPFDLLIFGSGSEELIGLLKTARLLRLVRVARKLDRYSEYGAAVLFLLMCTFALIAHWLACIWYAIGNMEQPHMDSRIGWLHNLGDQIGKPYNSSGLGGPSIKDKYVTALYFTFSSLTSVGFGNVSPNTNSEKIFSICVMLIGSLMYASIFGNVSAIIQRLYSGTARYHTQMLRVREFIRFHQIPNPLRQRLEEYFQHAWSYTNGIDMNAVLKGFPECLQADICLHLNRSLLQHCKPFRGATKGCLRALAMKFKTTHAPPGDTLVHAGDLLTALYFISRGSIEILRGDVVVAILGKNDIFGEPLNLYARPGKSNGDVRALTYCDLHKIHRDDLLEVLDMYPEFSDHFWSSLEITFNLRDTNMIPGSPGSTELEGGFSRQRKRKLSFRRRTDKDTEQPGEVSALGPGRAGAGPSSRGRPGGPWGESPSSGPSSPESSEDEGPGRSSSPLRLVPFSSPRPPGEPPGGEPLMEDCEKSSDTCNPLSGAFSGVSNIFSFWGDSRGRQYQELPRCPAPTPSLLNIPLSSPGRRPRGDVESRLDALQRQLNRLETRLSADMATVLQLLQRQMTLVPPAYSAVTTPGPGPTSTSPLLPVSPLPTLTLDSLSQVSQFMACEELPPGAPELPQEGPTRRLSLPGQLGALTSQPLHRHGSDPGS

For `CNC(=O)Cn1c(=O)n(C2CCN(CCC(Oc3cc(OC)ccc3C)C(C)C)CC2)c2ccccc21` (racemic), affinity in series [1] was put at a Ki of 0.056 µM. In addition, in the series on Canis familiaris, the Activity is listed as 10%. The TD50 in series [2] worked out at 4.7 µmol/kg.

In general, Ki refers to a measure of affinity in units of concentration, obtained from inhibition or displacement. High values mean lower affinity, low ones higher affinity.
